Measurements published in ChEMBL document CHEMBL1201862, “PubChem BioAssay data set” (2004).
Several values for one entry are separate records, joined by “and”; a condition that tells them apart may be missing. Equal entries are not always repeated. Activity calls are given as the source filed them.

What was measured:
[1] = half-maximal inhibitory concentration for glucagon-like peptide-1 release, STC-1 cell line, dose-response (AID 1117345); assay type: functional, cell-based
[2] = Dose-response inhibition of insulin secretion in a rat insulinoma line at 5 mM glucose (AID 1117331); assay type: functional, cell-based; details: INS-1E
[3] = Glucagon-like peptide 1 release potency, NCI-H716 cell line, dose-response, half-maximal inhibitory concentration (AID 1117344); assay type: functional, cell-based
[4] = A549 cell cytotoxicity, dose response, cytotoxicity control, plate reader, dry powder, set 6 (AID 743312); assay type: functional, cell-based
[5] = HepG2 cell cytotoxicity, dose response, cytotoxicity control, plate reader, dry powder, set 6 (AID 743311); assay type: functional, cell-based
cells = details: HEK293
[6] = target: T1, Rac GTPase-activating protein 1 (Homo sapiens, UniProt Q9H0H5); assay: MgcRacGAP GTPase-activating activity inhibitors, confirmation, biochemical, ADP Hunter fluorescence, primary and confirmatory (AID 624330); assay type: functional
T1 sequence (Q9H0H5 whole entry): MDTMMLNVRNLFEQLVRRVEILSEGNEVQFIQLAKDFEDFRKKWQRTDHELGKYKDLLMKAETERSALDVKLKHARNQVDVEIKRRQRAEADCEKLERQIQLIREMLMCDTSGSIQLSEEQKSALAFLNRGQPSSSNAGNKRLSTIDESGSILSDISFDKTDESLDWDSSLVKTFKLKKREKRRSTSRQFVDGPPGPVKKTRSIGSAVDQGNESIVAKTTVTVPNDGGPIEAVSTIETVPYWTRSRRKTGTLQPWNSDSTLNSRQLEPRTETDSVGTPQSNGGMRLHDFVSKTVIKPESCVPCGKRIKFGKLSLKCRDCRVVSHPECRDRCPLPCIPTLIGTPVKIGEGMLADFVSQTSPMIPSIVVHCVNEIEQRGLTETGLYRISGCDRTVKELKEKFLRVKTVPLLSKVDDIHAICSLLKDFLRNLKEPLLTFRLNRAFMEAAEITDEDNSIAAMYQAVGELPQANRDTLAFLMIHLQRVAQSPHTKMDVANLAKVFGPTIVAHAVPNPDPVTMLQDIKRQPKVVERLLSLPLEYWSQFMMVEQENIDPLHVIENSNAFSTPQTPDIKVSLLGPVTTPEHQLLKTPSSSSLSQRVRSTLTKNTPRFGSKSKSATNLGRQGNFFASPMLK

Leucine aminopeptidase = target: T2, Leucine aminopeptidase (Plasmodium falciparum 3D7, UniProt Q8IL11); assay: P. falciparum M17LAP inhibitors, primary screen, biochemical, fluorogenic H-Leu-NHMec substrate, 1536-well (AID 1619); assay type: functional
T2 sequence (Q8IL11 whole entry): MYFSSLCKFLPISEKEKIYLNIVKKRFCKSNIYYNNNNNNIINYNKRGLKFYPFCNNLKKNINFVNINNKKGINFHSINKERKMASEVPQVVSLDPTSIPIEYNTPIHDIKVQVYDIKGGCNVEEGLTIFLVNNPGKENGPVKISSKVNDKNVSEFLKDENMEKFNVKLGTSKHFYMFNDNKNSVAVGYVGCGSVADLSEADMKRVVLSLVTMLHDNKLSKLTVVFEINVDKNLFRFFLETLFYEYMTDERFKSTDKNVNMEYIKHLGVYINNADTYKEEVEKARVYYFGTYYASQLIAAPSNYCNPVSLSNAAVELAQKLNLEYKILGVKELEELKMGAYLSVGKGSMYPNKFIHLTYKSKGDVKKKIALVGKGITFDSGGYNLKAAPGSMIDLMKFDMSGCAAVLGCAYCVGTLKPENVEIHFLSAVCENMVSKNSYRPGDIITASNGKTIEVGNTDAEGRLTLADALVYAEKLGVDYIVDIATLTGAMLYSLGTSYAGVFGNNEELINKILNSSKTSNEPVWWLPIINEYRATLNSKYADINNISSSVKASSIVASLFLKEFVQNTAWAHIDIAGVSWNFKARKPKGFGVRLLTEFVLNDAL

[7] = inhibitors of Vif binding to APOBEC3G peptide, primary screen, biochemical, TR-FRET, GST-Vif 1-94, biotin-A3G peptide, dose response retest (AID 1117319); assay type: functional;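 note: TR-FRET signal of purified GST-Vif binding a biotinylated A3G peptide; inhibitors lower the FRET signal by blocking Vif and A3G binding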
[8] = target: T3, Sentrin-specific protease 8 (Homo sapiens, UniProt Q96LD8); assay type: functional
T3 sequence (Q96LD8 whole entry): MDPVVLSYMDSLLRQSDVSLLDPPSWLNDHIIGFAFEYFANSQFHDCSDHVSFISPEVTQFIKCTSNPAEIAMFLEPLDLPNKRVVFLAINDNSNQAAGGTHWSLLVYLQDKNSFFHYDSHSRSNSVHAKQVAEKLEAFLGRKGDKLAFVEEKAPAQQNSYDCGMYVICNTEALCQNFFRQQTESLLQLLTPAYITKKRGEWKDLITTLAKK

INS1 = assay: beta cell apoptosis inhibitors, cytokine rescue, dose response, luminescence, retest (AID 449756); assay type: functional, cell-based; details: Rattus norvegicus;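 note: cell death triggered by IL-1 beta plus TNF-alpha plus IFN-gamma mixture; protective hits raise ATP signal compared with cytokine alone wells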
[9] = HeLa 2N DNA content increase, dose response, cell-based, IC50 (AID 1117349); assay type: functional
[10] = HeLa 4N DNA content increase, dose response, cell-based, IC50 (AID 1117351); assay type: functional
SN12K1 = assay: cells; assay type: functional; details: Homo sapiens
[11] = target: T3, Sentrin-specific protease 8; assay type: functional; remark: listed apart in the source
P388/ADR = assay: cells; assay type: functional; details: Mus musculus
P388 = assay: cells; assay type: functional; details: Mus musculus
[12] = target: T4, DNA repair protein RAD52 homolog (Homo sapiens, UniProt P43351); assay type: functional, biochemical
T4 sequence (P43351 whole entry): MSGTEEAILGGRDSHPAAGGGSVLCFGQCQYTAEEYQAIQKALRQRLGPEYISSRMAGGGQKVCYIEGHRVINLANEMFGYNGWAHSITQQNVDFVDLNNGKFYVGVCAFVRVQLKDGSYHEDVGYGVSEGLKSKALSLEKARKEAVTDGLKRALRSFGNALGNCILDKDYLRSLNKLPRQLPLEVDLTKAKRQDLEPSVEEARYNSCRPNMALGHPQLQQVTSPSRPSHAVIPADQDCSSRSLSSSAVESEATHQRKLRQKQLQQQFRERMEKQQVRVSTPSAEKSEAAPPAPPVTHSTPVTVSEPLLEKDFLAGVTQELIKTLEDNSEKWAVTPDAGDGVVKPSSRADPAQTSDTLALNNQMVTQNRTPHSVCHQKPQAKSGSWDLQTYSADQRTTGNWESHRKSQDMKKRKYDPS

O=C(CBr)Nc1ccc(Cl)cc1C(=O)c1ccccc1F
IC50 [1]: > 40 µM (inactive) | IC50 [2]: > 33.3 µM (inactive) | IC50 [3]: > 40 µM (inactive)

c1ccc(-c2ccc(OCCn3cnc4ccccc43)cc2)cc1
AC50 [4]: 0.66 µM (active) | AC50 [5]: 5.92 µM (active) | AC50 (cells): > 52 µM (inactive)

COc1ccc2c(c1OC)C(=O)OC2CC(=O)c1ccc(O)c(O)c1 (stereo not drawn)
IC50 [6]: 56.1 µM (active) | IC50 (Leucine aminopeptidase): 35.2 µM (active) | IC50 [7]: > 100 µM (active)

COc1ccc2cc3[n+](cc2c1OC)CCc1cc2c(cc1-3)OCO2 [BERBERINE CHLORIDE]
IC50 [8]: > 100 µM (inactive) | AC50 (INS1): 3.25 µM (active) | IC50 [9]: > 10 µM (inactive) | IC50 [10]: > 10 µM (inactive) | GI50 (SN12K1): 3.93 µM (inactive) | IC50 [11]: 7.66 µM (active) | GI50 (P388/ADR): 102 µM (inactive) | GI50 (P388): 1.87 µM (inactive) | AC50 [12]: 2.38 µM (active) and 5.69 µM (active)
